Laboratory results published in patent US20060069132A1, “Azolecarboxamide herbicides” (priority 2004, published 2006).

Columns and labels:
[1] = system: pigweed; test: Test B pre-/postemergence herbicide test; type: in vivo, Amaranthus retroflexus; conditions: for Pigweed plant response rating: postemergence
In short: (§1)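 Plants compared with untreated controls 13–15 days post-treatment and given a visual 0–100 injury score. Applications: preemergence to seeds; postemergence at 1- to 4-leaf (2–18 cm); paddy species flooded, 2-leaf stage. Vehicle non-phytotoxic, surfactant included.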

[2] = system: velvetleaf; test: Test B pre-/postemergence herbicide test; type: in vivo, Abutilon theophrasti; conditions: for Velvetleaf plant response rating: postemergence
In short: as §1

[3] = system: large crabgrass; test: Test B pre-/postemergence herbicide test; type: in vivo, Digitaria sanguinalis; conditions: for Crabgrass, Large plant response rating: postemergence
In short: as §1

[4] = system: barnyardgrass; test: Test A pre-/postemergence herbicide test; type: in vivo, Echinochloa crus-galli
In short: (§2)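 Visual injury rating on a 0–100 scale (0 no effect, 100 complete control) versus untreated controls, about ten days after treatment in greenhouse. Pre: directed soil spray onto seeded sandy loam. Post: spray to runoff on plants 2–10 cm tall at one- to two-leaf stage.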

[5] = system: redroot pigweed; test: Test A pre-/postemergence herbicide test; type: in vivo, Amaranthus retroflexus
In short: as §2

[6] = system: morningglory; test: Test A pre-/postemergence herbicide test; type: in vivo, Ipomoea spp.
In short: as §2

[7] = system: wheat; test: Test B postemergence herbicide test; type: in vivo, Triticum aestivum; parameters: key to Wheat plant response rating: 0 = no effect, 100 = complete control; conditions: postemergence
In short: (§3)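 After treating 2-leaf paddy plants or 2–18 cm postemergence plants (1 to 4 leaves) with formulated chemical, researchers kept them in a greenhouse for 13–15 days. Effects were judged visually versus controls: 0 indicates none, 100 total control.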

[8] = system: rice; test: Test B flooded paddy test; type: in vivo, Oryza sativa; conditions: 1000 g ai/ha, scale 0 to 100 (0 no effect, 100 complete control)
In short: (§4)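 Formulated test chemicals went onto postemergence plants measuring 2 to 18 cm, at one to four leaves. For the paddy assay, species had reached two leaves. Scoring took place 13–15 days later by eye, relative to untreated plants, using 0 for no effect up to 100 for full control.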

[9] = system: large crabgrass; test: Test A pre-/postemergence herbicide test; type: in vivo, Digitaria sanguinalis
In short: as §2

[10] = system: giant foxtail; test: Test B pre-/postemergence herbicide test; type: in vivo, Setaria faberi; conditions: for Foxtail, Giant plant response rating: postemergence
In short: as §1

[11] = system: ducksalad; test: Test B flooded paddy test; type: in vivo, Heteranthera limosa; conditions: 1000 g ai/ha, scale 0 to 100 (0 no effect, 100 complete control)
In short: as §4

[12] = system: blackgrass; test: Test B postemergence herbicide test; type: in vivo, Alopecurus myosuroides; conditions: postemergence
In short: as §4

[13] = system: barnyardgrass; test: Test B flooded paddy test; type: in vivo, Echinochloa crus-galli; conditions: 1000 g ai/ha, scale 0 to 100 (0 no effect, 100 complete control)
In short: as §4

[14] = system: lambsquarters; test: Test B pre-/postemergence herbicide test; type: in vivo, Chenopodium album; conditions: for Lambsquarters plant response rating: postemergence
In short: as §1

[15] = system: corn; test: Test B pre-/postemergence herbicide test; type: in vivo, Zea mays; conditions: for Corn plant response rating: postemergence
In short: as §1

[16] = system: morningglory; test: Test B pre-/postemergence herbicide test; type: in vivo, Ipomoea coccinea; conditions: for Morningglory plant response rating: postemergence
In short: as §1

[17] = system: barnyardgrass; test: Test B pre-/postemergence herbicide test; type: in vivo, Echinochloa crus-galli; conditions: for Barnyardgrass plant response rating: postemergence
In short: as §1

[18] = system: Surinam grass; test: Test B pre-/postemergence herbicide test; type: in vivo, Urochloa decumbens; conditions: for Surinam Grass plant response rating: postemergence
In short: as §1

[19] = system: cocklebur; test: Test B pre-/postemergence herbicide test; type: in vivo, Xanthium strumarium; conditions: for Cocklebur plant response rating: postemergence
In short: as §1

[20] = system: wild oat; test: Test B postemergence herbicide test; type: in vivo, Avena fatua; conditions: postemergence
In short: as §3

[21] = system: giant foxtail; test: Test A pre-/postemergence herbicide test; type: in vivo, Setaria faberi
In short: as §2

[22] = system: rice; test: Test B pre-/postemergence herbicide test; type: in vivo, Oryza sativa; conditions: 0 = no effect, 100 = complete control, preemergence
In short: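 Greenhouse pot assay with simultaneous preemergence (treated seed) and postemergence (2–18 cm seedlings) applications of surfactant-containing, non-phytotoxic solvent formulations. Response scored visually 13–15 days later on a 0–100 scale, 100 meaning complete control.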

[23] = system: velvetleaf; test: Test A pre-/postemergence herbicide test; type: in vivo, Abutilon theophrasti
In short: as §2

[24] = system: small flower umbrella sedge; test: Test B flooded paddy test; type: in vivo, Cyperus difformis; conditions: 1000 g ai/ha, scale 0 to 100 (0 no effect, 100 complete control)
In short: as §4

[25] = 125 g ai/ha, 0 = no effect, 100 = complete control, preemergence
[26] = 500 g ai/ha, visual rating, 0 = no effect, 100 = complete control, preemergence
[27] = 125 g ai/ha, visual rating, scale 0 (no effect) to 100 (complete control)
[28] = 500 g ai/ha, scale 0 to 100, 0 is no effect, 100 is complete control
[29] = Postemergence, 500 g ai/ha, 0 to 100 scale, 0 no effect, 100 complete control
[30] = Postemergence, 2000 g ai/ha, 0 to 100 scale, 0 no effect, 100 complete control
[31] = Preemergence, 2000 g ai/ha, visual rating, 0 to 100 scale (0 no effect, 100 complete control)
[32] = preemergence, 500 g ai/ha, visual injury, 0 to 100 scale (0 no effect, 100 complete control)

Question: For `CCn1nc(C(C)(C)C)cc1C(=O)Nc1cc(C(N)=O)ccc1F` [Compound 271], which “Pigweed plant response rating (0 to 100 scale)” value [1, 25] is on record?
Answer: 0

Question: And the “Plant response rating, Pigweed” value [1, 26]?
Answer: 20

Question: What about the “Pigweed plant response rating” value [1, 27] of the same compound?
Answer: 50

Question: And the “Pigweed plant response rating” value [1, 28]?
Answer: 80

Question: And the “Velvetleaf plant response rating (0 to 100 scale)” value [2, 25]?
Answer: 0

Question: And the “Plant response rating, Velvetleaf” value [2, 26]?
Answer: 0

Question: What about the “Velvetleaf plant response rating” value [2, 27] of the same compound?
Answer: 0

Question: What about the “Velvetleaf plant response rating” value [2, 28] of the same compound?
Answer: 0

Question: And the “Crabgrass, Large plant response rating (0 to 100 scale)” value [3, 25]?
Answer: 0

Question: What about the “Plant response rating, Crabgrass, Large” value [3, 26] of the same compound?
Answer: 0

Question: What about the “Crabgrass, Large plant response rating” value [3, 27] of the same compound?
Answer: 0

Question: What about the “Crabgrass, Large plant response rating” value [3, 28] of the same compound?
Answer: 0

Question: What about the “Barnyardgrass plant response rating” value [4, 29] of the same compound?
Answer: 10

Question: What about the “Plant response rating, Barnyardgrass” value [4, 30] of the same compound?
Answer: 30

Question: What about the “Barnyardgrass plant response rating” value [4, 31] of the same compound?
Answer: 75

Question: What about the “Barnyardgrass plant response rating” value [4, 32] of the same compound?
Answer: 5

Question: And the “Pigweed plant response rating” value [5, 29]?
Answer: 45

Question: What about the “Plant response rating, Pigweed” value [5, 30] of the same compound?
Answer: 90

Question: And the “Pigweed plant response rating” value [5, 31]?
Answer: 60

Question: And the “Pigweed plant response rating” value [5, 32]?
Answer: 60

Question: What about the “Morningglory plant response rating” value [6, 29] of the same compound?
Answer: 10

Question: What about the “Plant response rating, Morningglory” value [6, 30] of the same compound?
Answer: 30

Question: And the “Morningglory plant response rating” value [6, 31]?
Answer: 0

Question: And the “Morningglory plant response rating” value [6, 32]?
Answer: 0

Question: And the “Wheat plant response rating” value [7, 27]?
Answer: 30

Question: And the “Wheat plant response rating” value [7, 28]?
Answer: 30

Question: What about the “Rice plant response rating” value [8] of the same compound?
Answer: 20

Question: What about the “Crabgrass, Large plant response rating” value [9, 29] of the same compound?
Answer: 10

Question: What about the “Plant response rating, Crabgrass, Large” value [9, 30] of the same compound?
Answer: 10

Question: What about the “Crabgrass, Large plant response rating” value [9, 31] of the same compound?
Answer: 15

Question: And the “Crabgrass, Large plant response rating” value [9, 32]?
Answer: 0

Question: What about the “Foxtail, Giant plant response rating (0 to 100 scale)” value [10, 25] of the same compound?
Answer: 0

Question: And the “Plant response rating, Foxtail, Giant” value [10, 26]?
Answer: 0

Question: What about the “Foxtail, Giant plant response rating” value [10, 27] of the same compound?
Answer: 0

Question: What about the “Foxtail, Giant plant response rating” value [10, 28] of the same compound?
Answer: 0

Question: And the “Ducksalad plant response rating” value [11]?
Answer: 40

Question: What about the “Blackgrass plant response rating” value [12, 27] of the same compound?
Answer: 10

Question: And the “Blackgrass plant response rating” value [12, 28]?
Answer: 20

Question: And the “Barnyardgrass plant response rating” value [13]?
Answer: 0

Question: What about the “Lambsquarters plant response rating (0 to 100 scale)” value [14, 25] of the same compound?
Answer: 0

Question: And the “Plant response rating, Lambsquarters” value [14, 26]?
Answer: 60

Question: What about the “Lambsquarters plant response rating” value [14, 27] of the same compound?
Answer: 10

Question: And the “Lambsquarters plant response rating” value [14, 28]?
Answer: 60

Question: And the “Corn plant response rating (0 to 100 scale)” value [15, 25]?
Answer: 0

Question: And the “Plant response rating, Corn” value [15, 26]?
Answer: 10

Question: What about the “Corn plant response rating” value [15, 27] of the same compound?
Answer: 0

Question: And the “Corn plant response rating” value [15, 28]?
Answer: 20

Question: And the “Morningglory plant response rating (0 to 100 scale)” value [16, 25]?
Answer: 0

Question: And the “Plant response rating, Morningglory” value [16, 26]?
Answer: 0

Question: What about the “Morningglory plant response rating” value [16, 27] of the same compound?
Answer: 0

Question: And the “Morningglory plant response rating” value [16, 28]?
Answer: 0

Question: What about the “Barnyardgrass plant response rating (0 to 100 scale)” value [17, 25] of the same compound?
Answer: 0

Question: What about the “Plant response rating, Barnyardgrass” value [17, 26] of the same compound?
Answer: 0

Question: And the “Barnyardgrass plant response rating” value [17, 27]?
Answer: 0

Question: What about the “Barnyardgrass plant response rating” value [17, 28] of the same compound?
Answer: 0

Question: And the “Surinam Grass plant response rating (0 to 100 scale)” value [18, 25]?
Answer: 0

Question: What about the “Plant response rating, Surinam Grass” value [18, 26] of the same compound?
Answer: 0

Question: What about the “Surinam Grass plant response rating” value [18, 27] of the same compound?
Answer: 0

Question: What about the “Surinam Grass plant response rating” value [18, 28] of the same compound?
Answer: 0

Question: What about the “Cocklebur plant response rating (0 to 100 scale)” value [19, 25] of the same compound?
Answer: 0

Question: And the “Plant response rating, Cocklebur” value [19, 26]?
Answer: 0

Question: What about the “Cocklebur plant response rating” value [19, 27] of the same compound?
Answer: 0

Question: And the “Cocklebur plant response rating” value [19, 28]?
Answer: 0

Question: And the “Oat, Wild plant response rating” value [20, 27]?
Answer: 20

Question: And the “Oat, Wild plant response rating” value [20, 28]?
Answer: 30

Question: And the “Foxtail, Giant plant response rating” value [21, 29]?
Answer: 10

Question: And the “Plant response rating, Foxtail, Giant” value [21, 30]?
Answer: 20

Question: And the “Foxtail, Giant plant response rating” value [21, 31]?
Answer: 70

Question: What about the “Foxtail, Giant plant response rating” value [21, 32] of the same compound?
Answer: 0

Question: What about the “Rice plant response rating (0 to 100 scale)” value ([22]; 125 g ai/ha) of the same compound?
Answer: 0

Question: And the “Plant response rating, Rice” value ([22]; 500 g ai/ha, visual rating)?
Answer: 0

Question: What about the “Velvetleaf plant response rating” value [23, 29] of the same compound?
Answer: 10

Question: And the “Plant response rating, Velvetleaf” value [23, 30]?
Answer: 40

Question: And the “Velvetleaf plant response rating” value [23, 31]?
Answer: 5

Question: What about the “Velvetleaf plant response rating” value [23, 32] of the same compound?
Answer: 0

Question: What about the “Sedge, Umbrella plant response rating” value [24] of the same compound?
Answer: 40
